Tested on: HepG2 cells
Test: Oil red O staining of fat accumulation in oleic acid-treated HepG2 cells
Format: cell-based, human
Details: 10 μg/mL compound (dissolved in DMSO)
Experimental: HepG2 cells were cultured at 37° C. under 5% carbon dioxide in DMEM supplemented with 10% FBS and 1% penicillin/streptomycin, hereinafter referred to as DMEM culture medium.
To prepare the oil red O staining solution, the dye, oil red O, was first dissolved in 100% isopropanol thoroughly to prepare a 30 mg/mL oil red O stock solution. To obtain a ready-to-use oil red O staining solution, the stock solution was diluted with double deionized water to a concentration of 18 mg/mL and filtered through a 0.22 μm filter immediately before use.
To obtain a DMEM containing oleic acid-BSA conjugate, 10 mg/mL BSA and 28 μg/mL oleic acid were added to a DMEM with 2% FBS and 1% penicillin/streptomycin. The resulting mixture was stirred for about 30 minutes to facilitate the conjugation between oleic acid and BSA and the formation of conjugates.
The neutral fat content of cells was determined by oil red O staining. Prior to staining, the cells after indicated treatment were washed with PBS and then fixed with 10% formaldehyde for 30 minutes. The fixed cells were washed once with PBS and rinsed with 50% isopropanol for 15 seconds. Thereafter, the cells were stained with the oil red O staining solution for 1 hour. […] Alternatively, the intracellular dye was dissolved with 100% isopropanol and quantified by spectrophotometry. […]

Row | Structure (SMILES) | reduction of fat accumulation in HepG2 cells compared with oleic acid alone
1 | O=C(OCC1OC(OC(=O)c2cc(O)c(O)c(O)c2)C(OC(=O)c2cc(O)c(O)c(O)c2)C(OC(=O)c2cc(O)c(O)c(O)c2)C1OC(=O)c1cc(O)c(O)c(O)c1)c1ccc(O)cc1 (centres unmarked) [formula (Ia)] | approximately 33%
2 | O=C(OCC1OC(OC(=O)c2cc(O)c(O)c(O)c2)C(OC(=O)c2cc(O)c(O)c(O)c2)C(OC(=O)c2cc(O)c(O)c(O)c2)C1OC(=O)c1cc(O)c(O)c(O)c1)c1cc(O)c(O)c(O)c1 (centres unmarked) [formula (Ib), 1,2,3,4,6-penta-O-galloyl-glucopyranoside] | ~44%

— US10918683B2, “Methods to reduce fat accumulation and oxidative damage in liver using green mango extracts and compounds obtained therefrom” (TCI CO., LTD., priority 2018, dated 2021)
